Literature values in patent US20070119380A1, “Additive Composition for Feeding Aquaculture Animals and Feed Containing the Same” (priority 2003, published 2007).

How the values were obtained:
[1] = in whitefish flesh/muscle, fresh/wet sample
mice = settings: interperitoneal and oral administration

SMILES	minimal amount (flavor threshold value) to produce a recognizable sensation [1] [ng/g]	sub-lethal toxic effects (mice)
Oc1c(Br)cc(Br)cc1Br [2,4,6-tribromophenol]	10	no sub-lethal toxic effects
Oc1ccc(Br)cc1Br [2,4-dibromophenol]	50	
Oc1c(Br)cccc1Br [2,6-dibromophenol]	0.1	
Oc1ccccc1Br [2-bromophenol]	10	no sub-lethal toxic effects
Oc1ccc(Br)cc1 [4-bromophenol]	20	
